Measurements from PMC4413198, “Inhibition of N-Type Calcium Channels by Fluorophenoxyanilide Derivatives” (Marine Drugs, 2015).
Several values for one entry are separate records, joined by “and”; a condition that tells them apart may be missing. Identical values can stand only once. Like-named read-outs stand apart in the source and are kept apart here.

Columns and labels:
[1] = target: T1, human Cav2.2 channels (Homo sapiens, UniProt Q00975); assay: SH-SY5Y neuroblastoma FLIPR assay of KCl-evoked calcium responses in presence of nifedipine; format: cell-based; conditions: for extent of inhibition of KCl-induced Ca2+ responses: in words; for inhibition at 300 µM: SH-SY5Y, read-out: % Max inhibition
[2] = target: T1, human Cav2.2 channels; conditions: HEK293 cells stably expressing human Cav2.2; n = 4–7; personal communication ref 40; read-out: IC50, block of calcium currents; cited from earlier work
[3] = set-up: method as in earlier work; conditions: primary endpoint; cited from earlier work
[4] = test system: N-type channel; conditions: cited from earlier work
[5] = SH-SY5Y cells, 90 mM KCl and 5 mM CaCl2, 10 µM nifedipine, 5 min pre-treatment
[6] = SH-SY5Y cells, 90 mM KCl and 5 mM CaCl2, 10 µM nifedipine, 5 min pre-treatment, read-out: IC50

T1 sequence (Q00975 whole entry): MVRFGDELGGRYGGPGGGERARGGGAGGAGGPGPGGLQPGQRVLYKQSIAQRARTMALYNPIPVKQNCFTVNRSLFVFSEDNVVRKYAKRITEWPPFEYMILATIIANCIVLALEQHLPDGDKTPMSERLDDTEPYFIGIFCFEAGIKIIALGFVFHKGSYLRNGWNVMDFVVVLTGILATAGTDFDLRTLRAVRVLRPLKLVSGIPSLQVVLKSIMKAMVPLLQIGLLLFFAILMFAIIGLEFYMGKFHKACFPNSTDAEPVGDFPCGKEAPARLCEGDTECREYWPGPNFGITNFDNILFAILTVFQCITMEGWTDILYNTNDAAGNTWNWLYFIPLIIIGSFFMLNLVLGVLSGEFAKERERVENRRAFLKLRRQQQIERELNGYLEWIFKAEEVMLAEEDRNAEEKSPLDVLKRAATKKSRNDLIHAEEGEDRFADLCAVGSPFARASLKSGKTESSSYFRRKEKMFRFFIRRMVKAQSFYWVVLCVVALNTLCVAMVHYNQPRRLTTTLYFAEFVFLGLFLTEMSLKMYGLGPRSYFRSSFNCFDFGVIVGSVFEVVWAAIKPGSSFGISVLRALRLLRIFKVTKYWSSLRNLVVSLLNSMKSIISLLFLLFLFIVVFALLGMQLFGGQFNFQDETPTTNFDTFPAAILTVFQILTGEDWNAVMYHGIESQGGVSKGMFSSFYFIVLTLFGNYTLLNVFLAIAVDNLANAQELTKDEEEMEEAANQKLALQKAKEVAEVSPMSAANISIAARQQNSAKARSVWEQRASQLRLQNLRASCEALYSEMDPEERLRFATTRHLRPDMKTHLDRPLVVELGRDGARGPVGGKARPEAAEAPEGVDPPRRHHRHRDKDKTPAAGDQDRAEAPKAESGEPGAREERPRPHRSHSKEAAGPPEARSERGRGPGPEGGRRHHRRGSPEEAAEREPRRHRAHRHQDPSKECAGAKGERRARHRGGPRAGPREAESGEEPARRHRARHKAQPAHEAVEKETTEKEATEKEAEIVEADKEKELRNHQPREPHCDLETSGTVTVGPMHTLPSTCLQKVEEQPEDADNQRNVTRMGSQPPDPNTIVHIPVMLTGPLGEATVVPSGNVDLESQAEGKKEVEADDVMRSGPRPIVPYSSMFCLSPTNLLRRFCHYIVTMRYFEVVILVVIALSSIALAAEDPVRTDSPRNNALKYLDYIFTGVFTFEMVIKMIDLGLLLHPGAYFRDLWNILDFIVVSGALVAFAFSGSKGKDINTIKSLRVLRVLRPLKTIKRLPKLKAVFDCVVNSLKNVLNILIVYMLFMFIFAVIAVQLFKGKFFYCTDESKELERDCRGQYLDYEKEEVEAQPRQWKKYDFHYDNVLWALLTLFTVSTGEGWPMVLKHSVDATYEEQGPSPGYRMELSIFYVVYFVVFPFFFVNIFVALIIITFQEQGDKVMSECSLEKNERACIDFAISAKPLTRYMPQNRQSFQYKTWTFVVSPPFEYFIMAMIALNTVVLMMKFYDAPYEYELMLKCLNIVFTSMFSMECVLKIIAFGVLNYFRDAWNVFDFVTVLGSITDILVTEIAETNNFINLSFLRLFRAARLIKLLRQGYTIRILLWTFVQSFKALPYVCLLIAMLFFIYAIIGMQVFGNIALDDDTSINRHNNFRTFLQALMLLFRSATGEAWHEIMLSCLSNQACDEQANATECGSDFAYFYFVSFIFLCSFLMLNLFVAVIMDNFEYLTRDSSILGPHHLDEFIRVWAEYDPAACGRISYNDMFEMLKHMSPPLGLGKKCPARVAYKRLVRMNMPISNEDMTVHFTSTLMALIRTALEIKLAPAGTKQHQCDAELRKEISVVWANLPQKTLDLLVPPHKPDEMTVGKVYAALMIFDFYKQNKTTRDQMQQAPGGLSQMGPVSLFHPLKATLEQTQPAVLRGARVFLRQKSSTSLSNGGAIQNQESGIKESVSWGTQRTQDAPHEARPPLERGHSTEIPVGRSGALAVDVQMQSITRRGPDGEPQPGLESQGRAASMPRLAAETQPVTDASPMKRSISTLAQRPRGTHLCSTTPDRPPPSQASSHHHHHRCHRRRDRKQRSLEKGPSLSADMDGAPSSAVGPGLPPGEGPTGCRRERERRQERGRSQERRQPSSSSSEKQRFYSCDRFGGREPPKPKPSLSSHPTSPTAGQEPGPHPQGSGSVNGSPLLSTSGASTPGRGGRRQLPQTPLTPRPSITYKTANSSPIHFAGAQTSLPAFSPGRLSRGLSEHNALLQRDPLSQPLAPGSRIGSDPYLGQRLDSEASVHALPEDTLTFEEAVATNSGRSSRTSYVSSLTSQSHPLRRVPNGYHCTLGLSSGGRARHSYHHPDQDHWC
T1 sequence (P54284 whole entry partner): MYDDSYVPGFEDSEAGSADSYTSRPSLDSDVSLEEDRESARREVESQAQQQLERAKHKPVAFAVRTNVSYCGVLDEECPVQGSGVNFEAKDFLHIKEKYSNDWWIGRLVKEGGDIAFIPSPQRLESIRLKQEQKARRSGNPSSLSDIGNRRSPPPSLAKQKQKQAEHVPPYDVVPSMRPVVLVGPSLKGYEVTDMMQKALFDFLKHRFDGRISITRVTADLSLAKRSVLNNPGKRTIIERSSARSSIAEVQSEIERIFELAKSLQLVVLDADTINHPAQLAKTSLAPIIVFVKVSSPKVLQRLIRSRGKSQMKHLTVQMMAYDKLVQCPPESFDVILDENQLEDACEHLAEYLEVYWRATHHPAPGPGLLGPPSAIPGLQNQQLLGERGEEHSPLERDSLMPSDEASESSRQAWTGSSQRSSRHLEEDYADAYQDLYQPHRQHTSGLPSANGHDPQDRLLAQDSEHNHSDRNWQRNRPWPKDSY
T1 sequence (P54289 25-956 partner limits assumed): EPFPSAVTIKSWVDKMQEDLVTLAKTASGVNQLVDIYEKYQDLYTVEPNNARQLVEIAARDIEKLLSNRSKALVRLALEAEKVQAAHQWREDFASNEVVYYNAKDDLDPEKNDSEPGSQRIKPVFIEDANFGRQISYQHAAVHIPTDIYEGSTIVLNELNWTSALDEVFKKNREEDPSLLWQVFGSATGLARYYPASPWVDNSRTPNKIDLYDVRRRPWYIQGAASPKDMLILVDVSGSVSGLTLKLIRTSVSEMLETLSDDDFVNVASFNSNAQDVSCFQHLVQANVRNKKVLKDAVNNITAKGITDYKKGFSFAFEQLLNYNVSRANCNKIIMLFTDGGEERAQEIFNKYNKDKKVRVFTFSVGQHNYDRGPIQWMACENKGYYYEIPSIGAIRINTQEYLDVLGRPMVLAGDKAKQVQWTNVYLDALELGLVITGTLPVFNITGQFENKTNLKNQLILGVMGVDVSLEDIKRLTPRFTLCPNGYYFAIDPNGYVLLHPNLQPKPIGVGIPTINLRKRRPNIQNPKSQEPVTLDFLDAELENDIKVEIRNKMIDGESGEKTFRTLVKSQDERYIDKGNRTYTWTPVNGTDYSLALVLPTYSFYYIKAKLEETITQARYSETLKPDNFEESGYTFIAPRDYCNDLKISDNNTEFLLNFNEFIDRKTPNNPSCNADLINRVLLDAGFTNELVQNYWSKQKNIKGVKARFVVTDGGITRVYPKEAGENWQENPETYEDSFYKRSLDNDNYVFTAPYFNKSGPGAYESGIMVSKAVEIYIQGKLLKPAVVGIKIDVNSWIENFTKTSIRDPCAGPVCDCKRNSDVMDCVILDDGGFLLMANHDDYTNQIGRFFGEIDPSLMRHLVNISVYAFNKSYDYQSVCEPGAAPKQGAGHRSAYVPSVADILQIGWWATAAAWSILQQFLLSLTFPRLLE
T1 sequence (P54289 957-1103 partner limits assumed): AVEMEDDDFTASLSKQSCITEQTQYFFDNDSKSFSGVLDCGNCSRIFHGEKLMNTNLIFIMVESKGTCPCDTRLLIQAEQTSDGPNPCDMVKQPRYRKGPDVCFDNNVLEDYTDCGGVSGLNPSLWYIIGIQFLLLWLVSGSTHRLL

SMILES	logIC50 [1, 5]	IC50 [1, 6] [µM]	extent of inhibition of KCl-induced Ca2+ responses ([1]; SH-SY5Y cells)	inhibition at 300 µM [1] [%]	further results
NCCCOc1ccc(C(=O)Nc2ccccc2Oc2ccc(F)cc2)cc1 [5a, 4-(3-Aminopropoxy)-N-(2-(4-fluorophenoxy)phenyl)benzamide]	–4.34	46	fully blocked		
NCCCOc1ccc(C(=O)Nc2cccc(Oc3ccc(F)cc3)c2)cc1 [5b, 4-(3-Aminopropoxy)-N-(3-(4-fluorophenoxy)phenyl)benzamide]	–4.45	35	fully blocked		
NCCCOc1ccc(C(=O)Nc2ccc(Oc3ccc(F)cc3)cc2)cc1 [5c, 4-(3-Aminopropoxy)-N-(4-(4-fluorophenoxy)phenyl)benzamide]	~–3.12	764	partially inhibited responses	30	
Cl.N=C(N)NCCCOc1ccc(C(=O)Nc2ccccc2Oc2ccc(F)cc2)cc1 [6a, N-(2-(4-Fluorophenoxy)phenyl)-4-(3-guanidinopropoxy)benzamide hydrochloride]	–3.90			65	IC50 [2]: 36.3 ± 2.4 µM
Cl.N=C(N)NCCCOc1ccc(C(=O)Nc2cccc(Oc3ccc(F)cc3)c2)cc1 [6b, N-(3-(4-Fluorophenoxy)phenyl)-4-(3-guanidinopropoxy)benzamide hydrochloride]	–3.73	185			
Cl.N=C(N)NCCCOc1ccc(C(=O)Nc2ccc(Oc3ccc(F)cc3)cc2)cc1 [6c, N-(4-(4-Fluorophenoxy)phenyl)-4-(3-guanidinopropoxy)benzamide hydrochloride]	–3.14	723	partially inhibited responses	19	
O=C(CC(c1ccccc1)c1ccccc1)N1CCN(C(c2ccccc2)c2ccccc2)CC1 [Z160]					outcome of Phase II clinical studies [3]: failed to meet the primary endpoint
N=C(N)NCCCCCCCC(=O)Nc1ccc(OCCCNC(=N)N)cc1C(=O)Nc1ccc(Oc2ccc(F)cc2)cc1 [compound 3, reference compound]				15	activity in radioligand-displacement assay (in words) [4]: most potent fluorinated analogue; extent of inhibition of Ca2+ responses at 1 mM [1]: only partially inhibited responses; logIC50 [1]: ~–2.84; IC50 ([1]; IC50): ~1450 µM and 1450 µM
NCCCCCCCC(=O)Nc1ccc(OCCCN)cc1C(=O)Nc1ccc(Oc2ccc(F)cc2)cc1 [compound 4]					activity in radioligand-displacement assay (in words) [4]: comparatively weak activity
